The results in this text go back to patent US20080113956A1, “Substituted Porphyrins” (priority 1997, published 2008).

In this assay the test system is mean arterial pressure. The assay can be described thus: Effect on vascular tone: blood pressure in anesthetized rats. Format: in vivo. The following applies: rat; for duration of the hypotensive effect: i.v. As for the experimental part:
Rats were anesthetized and a femoral vein and carotid artery were cannulated. While blood pressure was monitored by the carotid artery, Mn TM-2-PyP was injected i.v. at doses ranging from 0.1 to 3.0 mg/kg. Mean arterial pressure fell from 100-125 mmHg to 50-60 mmHg within five to ten minutes. The effect was transient, lasting up to 30 minutes at doses of 0.1 to 0.25 mg/kg. […] Scavenging of superoxide in vascular walls would potentiate the effects of nitric oxide producing hypotension.

Turning to “manganese(III) 5,10,15,20-tetrakis(N-methylpyridyl)porphyrin [MnTM-2-PyP^5+]”, the “mean arterial pressure after injection” value (i.v. 0.1 to 3.0 mg/kg, fell from 100-125 mmHg within five to ten minutes) was 50-60 mmHg. Further, the “duration of the hypotensive effect” value runs as follows: (doses of 0.1 to 0.25 mg/kg) “up to 30 minutes”; (doses of 1-3 mg/kg) “up to two hours”.
